Measurements published in patent US9012410B2, “Method of treating intrauterine inflammation” (Case Western Reserve University, priority 2006, dated 2015).

Experiments:
mice = conditions: literature (Elovitz et al., 2006); cited from earlier work
human TLR2 = biological target: T1, human TLR2 (Homo sapiens, UniProt O60603+Q15399); experiment: IL-8 expression from HEK293/hTLR2 cells by ELISA; assay type: cell-based; conditions: 24-h incubation, varying concentrations
T1 construct: host or cells: HEK293
Method: (§1) HEK293 or HEK293/hTLR2 and HEK293/hTLR4/MD2/CD14, were seeded into 96-well plates at a density of 50,000 cells/well and allowed to grow overnight. The cells were then incubated with and N-palmitoyl(S)-[2,3-bis(palmitoyloxy)-(2, RS)-propyl]-Cys-Scr-Lys4 (Pam3CSK4), ultrapure Escherichia coli LPS, or fresh cultures of F. nucleatum 12230 at the indicated doses followed by a 24-h incubation. The supernatant was harvested and centrifuged and the amount of IL-8 secreted was determined by ELISA.
(§2) Immunlon flat-bottom 96-well microliter plates (Thermo Electron, Mass) were coated with goat anti-human IL-8 Ab (4 μg/ml; R&D System) in 100 μl of coating buffer (0.05 M carbonate buffer (pH 9.6)). After overnight incubation at 4° C., the plates were washed six times with washing buffer, i.e., 0.05% Tween 20 in PBS (Sigma-Aldrich), followed by an overnight incubation in blocking buffer (1% BSA in PBS) at 4° C. The plates were washed four times before an aliquot of 100 μl of diluted mammalian cell culture supernatant or human IL-8 (R&D Systems, Minn) were added to each well and incubated overnight at 4° C. The plates were washed, followed by 3-h incubation with polyclonal rabbit anti-human 11,-8 Ab (1/1000; Endogen) at room temperature. […] The light absorbance was measured at 450 nm on a Bio-Rad Model 680 microplate reader. […]

human TLR4/MD2/CD14 = biological target: T2, human TLR4/MD2/CD14 (Homo sapiens, UniProt O00206+Q9Y6Y9); experiment: IL-8 expression from HEK293/hTLR4/MD2/CD14 cells by ELISA; assay type: cell-based; conditions: 24-h incubation, varying concentrations
T2 construct: host or cells: HEK293
Method: as §1, §2

T1 sequence (O60603 21-784): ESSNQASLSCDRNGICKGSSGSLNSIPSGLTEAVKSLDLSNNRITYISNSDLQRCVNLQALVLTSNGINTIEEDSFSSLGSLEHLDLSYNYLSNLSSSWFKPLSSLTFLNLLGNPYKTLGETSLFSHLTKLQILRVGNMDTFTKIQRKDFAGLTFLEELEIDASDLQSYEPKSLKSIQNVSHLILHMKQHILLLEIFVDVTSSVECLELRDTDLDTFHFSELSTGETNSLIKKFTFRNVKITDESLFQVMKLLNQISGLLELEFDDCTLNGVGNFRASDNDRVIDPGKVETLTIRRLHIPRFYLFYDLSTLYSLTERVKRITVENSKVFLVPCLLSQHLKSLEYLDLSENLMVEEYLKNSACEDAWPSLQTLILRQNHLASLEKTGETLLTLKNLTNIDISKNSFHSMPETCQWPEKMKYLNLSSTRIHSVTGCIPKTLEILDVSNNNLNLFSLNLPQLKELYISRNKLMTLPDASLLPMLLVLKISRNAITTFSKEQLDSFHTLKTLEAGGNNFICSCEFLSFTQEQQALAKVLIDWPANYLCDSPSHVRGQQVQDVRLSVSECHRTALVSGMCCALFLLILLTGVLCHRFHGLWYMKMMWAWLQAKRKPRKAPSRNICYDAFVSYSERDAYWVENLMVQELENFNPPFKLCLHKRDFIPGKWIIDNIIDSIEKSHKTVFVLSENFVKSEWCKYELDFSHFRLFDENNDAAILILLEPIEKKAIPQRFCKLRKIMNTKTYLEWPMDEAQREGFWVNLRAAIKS
T1 sequence (Q15399 25-786): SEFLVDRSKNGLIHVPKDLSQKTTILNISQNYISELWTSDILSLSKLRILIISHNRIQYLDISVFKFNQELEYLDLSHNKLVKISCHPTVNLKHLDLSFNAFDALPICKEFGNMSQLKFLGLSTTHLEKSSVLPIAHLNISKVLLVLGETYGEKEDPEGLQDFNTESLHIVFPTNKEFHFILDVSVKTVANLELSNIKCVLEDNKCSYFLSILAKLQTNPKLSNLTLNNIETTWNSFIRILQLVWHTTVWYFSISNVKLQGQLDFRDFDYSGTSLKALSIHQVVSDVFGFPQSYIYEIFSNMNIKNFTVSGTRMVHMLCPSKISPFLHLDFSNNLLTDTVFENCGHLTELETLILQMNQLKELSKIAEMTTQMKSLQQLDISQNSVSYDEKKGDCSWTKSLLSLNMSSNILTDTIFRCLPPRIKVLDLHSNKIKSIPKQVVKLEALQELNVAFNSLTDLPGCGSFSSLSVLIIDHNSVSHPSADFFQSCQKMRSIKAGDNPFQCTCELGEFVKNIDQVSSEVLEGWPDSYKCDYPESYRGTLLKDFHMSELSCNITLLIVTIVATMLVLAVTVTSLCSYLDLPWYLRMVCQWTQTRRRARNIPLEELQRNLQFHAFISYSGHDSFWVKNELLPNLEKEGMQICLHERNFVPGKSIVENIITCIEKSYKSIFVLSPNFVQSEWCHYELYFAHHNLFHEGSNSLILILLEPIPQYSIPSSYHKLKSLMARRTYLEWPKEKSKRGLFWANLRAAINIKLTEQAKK
T2 sequence (O00206 24-839): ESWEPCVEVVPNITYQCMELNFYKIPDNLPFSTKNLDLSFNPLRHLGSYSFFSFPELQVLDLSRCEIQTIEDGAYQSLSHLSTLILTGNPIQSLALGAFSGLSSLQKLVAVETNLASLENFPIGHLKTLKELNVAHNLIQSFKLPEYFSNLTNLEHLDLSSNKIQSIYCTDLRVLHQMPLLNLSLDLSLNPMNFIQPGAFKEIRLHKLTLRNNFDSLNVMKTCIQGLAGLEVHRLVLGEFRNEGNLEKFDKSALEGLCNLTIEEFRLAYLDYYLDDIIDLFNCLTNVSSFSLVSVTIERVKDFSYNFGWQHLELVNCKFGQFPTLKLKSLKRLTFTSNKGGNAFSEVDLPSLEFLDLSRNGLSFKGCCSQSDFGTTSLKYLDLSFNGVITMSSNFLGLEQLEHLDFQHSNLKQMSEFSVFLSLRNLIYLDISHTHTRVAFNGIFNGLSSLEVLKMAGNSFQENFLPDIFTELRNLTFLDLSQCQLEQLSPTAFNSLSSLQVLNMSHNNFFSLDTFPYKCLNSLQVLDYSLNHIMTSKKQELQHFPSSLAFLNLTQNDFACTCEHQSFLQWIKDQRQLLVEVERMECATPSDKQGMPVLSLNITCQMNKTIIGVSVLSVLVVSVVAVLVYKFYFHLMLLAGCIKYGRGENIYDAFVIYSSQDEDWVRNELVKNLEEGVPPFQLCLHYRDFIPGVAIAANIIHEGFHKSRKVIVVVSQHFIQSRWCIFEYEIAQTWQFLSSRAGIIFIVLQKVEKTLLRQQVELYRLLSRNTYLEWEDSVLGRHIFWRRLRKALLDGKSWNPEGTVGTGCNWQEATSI
T2 sequence (Q9Y6Y9 19-160): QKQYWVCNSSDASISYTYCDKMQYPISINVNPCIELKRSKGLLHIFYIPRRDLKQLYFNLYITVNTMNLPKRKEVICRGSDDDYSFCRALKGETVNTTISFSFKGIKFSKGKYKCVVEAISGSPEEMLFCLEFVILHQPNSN

Row | Compound | maternal morbidity in mice (mice) | activation of TLR2 (IL-8 expression) (human TLR2) | activation of TLR4 (IL-8 expression) (human TLR4/MD2/CD14)
1 | CCCCCC(=O)O[C@]1(C(C)=O)CC[C@H]2[C@@H]3CCC4=CC(=O)CC[C@]4(C)[C@H]3CC[C@@]21C [17-α hydroxyprogesterone caproate] | significant maternal morbidity | – | –
2 | N-palmitoyl(S)-[2,3-bis(palmitoyloxy)-(2, RS)-propyl]-Cys-Scr-Lys4 [Pam3CSK4] | – | only activated their respective receptors | not vice versa
